Results as given in patent US8192962B2, “Processes for detecting toxic substances” (Daikin Industries, Ltd., priority 2001, dated 2012).

Test system: Unknown protein yeast genes
Experiment: DNA chip mRNA expression in yeast, unknown protein yeast genes (Table 1)
Type: cell-based, Saccharomyces cerevisiae S288C
Summary of the method: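 Measured as treated-to-untreated fluorescence ratio on a full-genome yeast DNA chip. Cells (S288C, YPD, 25° C.) were exposed in log phase for two hours to one chemical, dosed to curb growth without killing.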

N#Cc1c(Cl)c(Cl)c(Cl)c(C#N)c1Cl [(9), 2,4,5,6-tetrachloro-1,3-benzenedicarbonitrile]
The level of expressed mRNA in the presence of chemical substance/The level of expressed mRNA in the absence of chemical substance (yeast gene YAL053W, incubated two hours with chemical substance): 1.4
The level of expressed mRNA in the presence of chemical substance/The level of expressed mRNA in the absence of chemical substance (yeast gene YBL048W): 7.2
The level of expressed mRNA in the presence of chemical substance/The level of expressed mRNA in the absence of chemical substance (yeast gene YBL107C): 1.0
The level of expressed mRNA in the presence of chemical substance/The level of expressed mRNA in the absence of chemical substance (yeast gene YDL072C, incubated two hours with chemical substance): 1.1
The level of expressed mRNA in the presence of chemical substance/The level of expressed mRNA in the absence of chemical substance (yeast gene YDL146W): 0.8
The level of expressed mRNA in the presence of chemical substance/The level of expressed mRNA in the absence of chemical substance (yeast gene YDL204W, incubated two hours with chemical substance): 2.3
The level of expressed mRNA in the presence of chemical substance/The level of expressed mRNA in the absence of chemical substance (yeast gene YDL222C, incubated two hours with chemical substance): 1.9
The level of expressed mRNA in the presence of chemical substance/The level of expressed mRNA in the absence of chemical substance (yeast gene YDR057W): 1.5
The level of expressed mRNA in the presence of chemical substance/The level of expressed mRNA in the absence of chemical substance (yeast gene YDR286C): 0.8
The level of expressed mRNA in the presence of chemical substance/The level of expressed mRNA in the absence of chemical substance (yeast gene YDR330W, incubated two hours with chemical substance): 3.9
The level of expressed mRNA in the presence of chemical substance/The level of expressed mRNA in the absence of chemical substance (yeast gene YDR391C, incubated two hours with chemical substance): 1.5
The level of expressed mRNA in the presence of chemical substance/The level of expressed mRNA in the absence of chemical substance (yeast gene YDR411C, incubated two hours with chemical substance): 0.7
The level of expressed mRNA in the presence of chemical substance/The level of expressed mRNA in the absence of chemical substance (yeast gene YDR511W, incubated two hours with chemical substance): 2.5
The level of expressed mRNA in the presence of chemical substance/The level of expressed mRNA in the absence of chemical substance (yeast gene YDR545W, incubated two hours with chemical substance): 1.8
The level of expressed mRNA in the presence of chemical substance/The level of expressed mRNA in the absence of chemical substance (yeast gene YEL001C, incubated two hours with chemical substance): 2.0
The level of expressed mRNA in the presence of chemical substance/The level of expressed mRNA in the absence of chemical substance (yeast gene YER004W, incubated two hours with chemical substance): 4.5
The level of expressed mRNA in the presence of chemical substance/The level of expressed mRNA in the absence of chemical substance (yeast gene YER035W, incubated two hours with chemical substance): 1.2
The level of expressed mRNA in the presence of chemical substance/The level of expressed mRNA in the absence of chemical substance (yeast gene YER079W, incubated two hours with chemical substance): 5.3
The level of expressed mRNA in the presence of chemical substance/The level of expressed mRNA in the absence of chemical substance (yeast gene YER106W, incubated two hours with chemical substance): 0.4
The level of expressed mRNA in the presence of chemical substance/The level of expressed mRNA in the absence of chemical substance (yeast gene YER158C, incubated two hours with chemical substance): 2.1
The level of expressed mRNA in the presence of chemical substance/The level of expressed mRNA in the absence of chemical substance (yeast gene YER163C, incubated two hours with chemical substance): 5.4
The level of expressed mRNA in the presence of chemical substance/The level of expressed mRNA in the absence of chemical substance (yeast gene YER175C, incubated two hours with chemical substance): 1.9
The level of expressed mRNA in the presence of chemical substance/The level of expressed mRNA in the absence of chemical substance (yeast gene YFL006W, incubated two hours with chemical substance): 3.2
The level of expressed mRNA in the presence of chemical substance/The level of expressed mRNA in the absence of chemical substance (yeast gene YFL010C, incubated two hours with chemical substance): 3.1
The level of expressed mRNA in the presence of chemical substance/The level of expressed mRNA in the absence of chemical substance (yeast gene YFL017C): 0.8
The level of expressed mRNA in the presence of chemical substance/The level of expressed mRNA in the absence of chemical substance (yeast gene YFL024C): 0.5
The level of expressed mRNA in the presence of chemical substance/The level of expressed mRNA in the absence of chemical substance (yeast gene YFL032W, incubated two hours with chemical substance): 0.5
The level of expressed mRNA in the presence of chemical substance/The level of expressed mRNA in the absence of chemical substance (yeast gene YFR008W): 1.5
The level of expressed mRNA in the presence of chemical substance/The level of expressed mRNA in the absence of chemical substance (yeast gene YGL037C, incubated two hours with chemical substance): 2.1
The level of expressed mRNA in the presence of chemical substance/The level of expressed mRNA in the absence of chemical substance (yeast gene YGL047W, incubated two hours with chemical substance): 4.5
The level of expressed mRNA in the presence of chemical substance/The level of expressed mRNA in the absence of chemical substance (yeast gene YGL053W, incubated two hours with chemical substance): 3.3
The level of expressed mRNA in the presence of chemical substance/The level of expressed mRNA in the absence of chemical substance (yeast gene YGL121C): 7.0
The level of expressed mRNA in the presence of chemical substance/The level of expressed mRNA in the absence of chemical substance (yeast gene YGR101W, incubated two hours with chemical substance): 4.0
The level of expressed mRNA in the presence of chemical substance/The level of expressed mRNA in the absence of chemical substance (yeast gene YGR110W): 6.4
The level of expressed mRNA in the presence of chemical substance/The level of expressed mRNA in the absence of chemical substance (yeast gene YGR130C, incubated two hours with chemical substance): 2.0
The level of expressed mRNA in the presence of chemical substance/The level of expressed mRNA in the absence of chemical substance (yeast gene YGR154C, incubated two hours with chemical substance): 25.2
The level of expressed mRNA in the presence of chemical substance/The level of expressed mRNA in the absence of chemical substance (yeast gene YHL042W): 0.8
The level of expressed mRNA in the presence of chemical substance/The level of expressed mRNA in the absence of chemical substance (yeast gene YHR138C, incubated two hours with chemical substance): 5.3
The level of expressed mRNA in the presence of chemical substance/The level of expressed mRNA in the absence of chemical substance (yeast gene YHR199C, incubated two hours with chemical substance): 8.6
The level of expressed mRNA in the presence of chemical substance/The level of expressed mRNA in the absence of chemical substance (yeast gene YIL023C, incubated two hours with chemical substance): 3.5
The level of expressed mRNA in the presence of chemical substance/The level of expressed mRNA in the absence of chemical substance (yeast gene YIL024C, incubated two hours with chemical substance): 2.2
The level of expressed mRNA in the presence of chemical substance/The level of expressed mRNA in the absence of chemical substance (yeast gene YIL041W, incubated two hours with chemical substance): 1.8
The level of expressed mRNA in the presence of chemical substance/The level of expressed mRNA in the absence of chemical substance (yeast gene YIL087C, incubated two hours with chemical substance): 2.4
The level of expressed mRNA in the presence of chemical substance/The level of expressed mRNA in the absence of chemical substance (yeast gene YIL117C, incubated two hours with chemical substance): 2.3
The level of expressed mRNA in the presence of chemical substance/The level of expressed mRNA in the absence of chemical substance (yeast gene YJL057C, incubated two hours with chemical substance): 7.3
The level of expressed mRNA in the presence of chemical substance/The level of expressed mRNA in the absence of chemical substance (yeast gene YJL066C, incubated two hours with chemical substance): 2.0
The level of expressed mRNA in the presence of chemical substance/The level of expressed mRNA in the absence of chemical substance (yeast gene YJL082W, incubated two hours with chemical substance): 1.4
The level of expressed mRNA in the presence of chemical substance/The level of expressed mRNA in the absence of chemical substance (yeast gene YJL108C, incubated two hours with chemical substance): 0.3
The level of expressed mRNA in the presence of chemical substance/The level of expressed mRNA in the absence of chemical substance (yeast gene YJL151C, incubated two hours with chemical substance): 0.5
The level of expressed mRNA in the presence of chemical substance/The level of expressed mRNA in the absence of chemical substance (yeast gene YJL152W, incubated two hours with chemical substance): 0.3
The level of expressed mRNA in the presence of chemical substance/The level of expressed mRNA in the absence of chemical substance (yeast gene YJL161W, incubated two hours with chemical substance): 3.1
The level of expressed mRNA in the presence of chemical substance/The level of expressed mRNA in the absence of chemical substance (yeast gene YJL171C, incubated two hours with chemical substance): 1.0
The level of expressed mRNA in the presence of chemical substance/The level of expressed mRNA in the absence of chemical substance (yeast gene YJR008W, incubated two hours with chemical substance): 1.8
The level of expressed mRNA in the presence of chemical substance/The level of expressed mRNA in the absence of chemical substance (yeast gene YKL065C): 3.1
The level of expressed mRNA in the presence of chemical substance/The level of expressed mRNA in the absence of chemical substance (yeast gene YKL071W): 162.2
The level of expressed mRNA in the presence of chemical substance/The level of expressed mRNA in the absence of chemical substance (yeast gene YKL086W, incubated two hours with chemical substance): 8.2
The level of expressed mRNA in the presence of chemical substance/The level of expressed mRNA in the absence of chemical substance (yeast gene YKL147C): 1.0
The level of expressed mRNA in the presence of chemical substance/The level of expressed mRNA in the absence of chemical substance (yeast gene YKL151C, incubated two hours with chemical substance): 3.3
The level of expressed mRNA in the presence of chemical substance/The level of expressed mRNA in the absence of chemical substance (yeast gene YKL153W, incubated two hours with chemical substance): 0.8
